In this assay the target is T1, human farnesol receptor protein hFXR (Homo sapiens, UniProt Q96RI1).
T1 construct: hexahistidine (His6)
T1 sequence (Q96RI1 1-486): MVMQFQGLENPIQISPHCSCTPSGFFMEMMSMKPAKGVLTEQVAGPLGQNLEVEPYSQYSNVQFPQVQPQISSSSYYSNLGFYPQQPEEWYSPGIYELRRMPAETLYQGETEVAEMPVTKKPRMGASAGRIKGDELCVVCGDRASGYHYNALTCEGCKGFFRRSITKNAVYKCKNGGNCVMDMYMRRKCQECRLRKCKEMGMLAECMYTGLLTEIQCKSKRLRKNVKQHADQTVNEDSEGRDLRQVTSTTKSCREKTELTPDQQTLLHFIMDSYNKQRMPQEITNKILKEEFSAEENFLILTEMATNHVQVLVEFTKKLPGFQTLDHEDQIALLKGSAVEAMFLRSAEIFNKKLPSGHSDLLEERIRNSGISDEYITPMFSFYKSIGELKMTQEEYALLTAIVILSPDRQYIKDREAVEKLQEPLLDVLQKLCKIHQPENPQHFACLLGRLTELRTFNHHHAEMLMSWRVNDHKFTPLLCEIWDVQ
The assay can be described thus: AlphaScreen assay of FXR agonist activity in vitro: effect on binding between human farnesol receptor protein and its coactivator (SRC1-2). The format is biochemical. The conditions noted are these: hFXR 100 nM, peptide bSRC1-2 50 nM, 2 hr incubation at room temperature. As for the experimental part:
FXR agonist activity in vitro for the chemicals prepared in the above examples is measured.
AlphaScreen-based assays are performed with a hexahistidine detection kit manufactured by Perkins-Elmer, for measuring the effect of chemical compounds on the binding between human farnesol receptor protein and its coactivator (SRC1-2), the method is shown as follows:
1) Preparing a mixture comprising human farnesol receptor protein hFXR (100 nM, 15 μL/well), peptide bSRC1-2 (50 nM, 15 μL/well), 10× AlphaScreen buffer solution (15 μL/well and DI water (60 μL/well), and then transferring 105 μL/well of the mixture to a 96-well plate; 2) Diluting the chemicals prepared in the above examples by twice gradient 12×, with 15 μL/well; 3) Adding donor beads and acceptor beads, 30 μL/well in total; (attention: the beads are light-sensitive) 4) Incubating in dark at room temperature for 2 hr; 5) Transferring 40 μL/well of the mixture to a 384-well plate with 3 replicates, and then centrifuging at 1000 rpm for 1 min, to make liquid mixed well underneath the wells. (attention: photopathic operation); 6) In a dark room, reading the plate (by Homogeneous luminescent immunoassay system) to obtain EC50 with a GraphPad Prism5 software.
As for `O=C(O)c1ccc2nc(N3CCC4(CC(OCc5c(-c6c(F)cccc6F)noc5C5CC5)C4)C3)sc2c1` (centres unmarked) [Example 38], the EC50 was in the range of 100 to 1000 nM.

Compound “(S)-2-(2-((5-cyclopropyl-3-(2,6-dichlorophenyl)isoxazol-4-yl)methoxy)-7-(fluromethyl)-6-azaspiro[3.4]octan-6-yl)-4-methoxybenzo[d]thiazole-6-carboxylic Acid [Example 20]” showed an EC50 of 100 to 1000 nM.

`O=C(O)c1cc2ccc(N3CCC4(CC(OCc5c(-c6c(Cl)cccc6Cl)noc5C5CC5)C4)C3)cc2s1` (centres unmarked) [Example 30, 6-(2-((5-cyclopropyl-3-(2,6-dichlorophenyl)isoxazol-4-yl)methoxy)-6-azaspiro[3.4]octan-6-yl) benzothiophene-2-carboxylic Acid] registered a concentration giving a half-maximal response (EC50) of 100 to 1000 nM. Then `O=C(O)c1cccc(N2CCC3(CC(OCc4c(-c5c(Cl)cccc5Cl)noc4C4CC4)C3)C2)c1` (centres unmarked) [Example 10, 3-(2-((5-cyclopropyl-3-(2,6-dichlorophenyl)isoxazol-4-yl)methoxy)-6-azaspiro[3.4]octan-6-yl)benzoic Acid], with 100 to 1000 nM.

As for `O=C(O)c1cc(F)c2nc(N3CCC4(CC(OCc5c(-c6c(Cl)cccc6Cl)noc5C5CC5)C4)C3)sc2c1` (centres unmarked) [Example 13, 2-(2-((5-cyclopropyl-3-(2,6-dichlorophenyl)isoxazol-4-yl)methoxy)-6-azaspiro[3.4]octan-6-yl)-4-flurobenzo[d]thiazole-6-carboxylic Acid], the EC50 was 100 to 1000 nM. With `O=C(O)c1ccc2nc(N3CC4CCCC(C3)C4OCc3c(-c4c(Cl)cccc4Cl)noc3C3CC3)sc2c1` (centres unmarked) [Example 28, 2-(9-((5-cyclopropyl-3-(2,6-dichlorophenyl)isoxazol-4-yl)methoxy)-3-azazbicyclo[3.3.1]nonan-3-yl) benzo[d]thiazole-6-carboxylic Acid], the EC50 was below 100 nM. For `O=C(O)c1ccc2nc(N3Cc4ccc(OCc5c(-c6c(Cl)cccc6Cl)noc5C5CC5)cc4C3)sc2c1` [Example 22, 2-(5-((5-cyclopropyl-3-(2,6-dichlorophenyl)isoxazol-4-yl)methoxy)isoindolin-2-yl) benzo[d]thiazole-6-carboxylic Acid], the EC50 was below 100 nM. The compound `O=C(O)c1ccc2nc(N3CC4CCCCC(C3)C4OCc3c(-c4c(Cl)cccc4Cl)noc3C3CC3)sc2c1` (centres unmarked) [Example 11, 2-(10-((5-cyclopropyl-3-(2,6-dichlorophenyl)isoxazol-4-yl)methoxy)-8-azabicyclo[4.3.1]decan-8-yl)benzo[d]thiazole-6-carboxylic Acid] gave an EC50 below 100 nM. For the compound `O=C(O)c1cccc(C(=O)N2CC3CCC(C2)C3OCc2c(-c3c(Cl)cccc3Cl)noc2C2CC2)c1` (centres unmarked) [Example 5, 3-(8((5-cyclopropyl-3-(2,6-dichlorophenyl)isoxazol-4-yl)methoxy)3-azabicyclo[3.2.1]octan-3-carbonyl)benzoic Acid], the EC50 is above 1000 nM. Compound `O=C(O)c1ccc2nc(N3CCC4(CC3)CC(OCc3c(-c5c(Cl)cccc5Cl)noc3C3CC3)C4)sc2c1` [Example 2, 2-(2((5-cyclopropyl-3-(2,6-dichlorophenyl)isoxazol-4-yl)methoxy)-7-azaspiro[3.5]nonan-7-yl)benzo[d]thiazole-6-carboxylic Acid] showed an EC50 below 100 nM.

Compound `O=C(O)c1cccc(C(=O)N2CCC3(CC2)CC(OCc2c(-c4c(Cl)cccc4Cl)noc2C2CC2)C3)c1` [Example 1] had an EC50 above 1000 nM. `C[C@@H]1CC2(CC(OCc3c(-c4c(Cl)cccc4Cl)noc3C3CC3)C2)CN1c1nc2c(F)cc(C(=O)O)cc2s1` (some centres unmarked) [Example 17] yielded a 50% effective concentration (EC50) of 100 to 1000 nM. Compound `O=C(O)c1ccc(N2CCC3(CC(OCc4c(-c5c(Cl)cccc5Cl)noc4C4CC4)C3)C2)c(F)c1` (centres unmarked) [Example 37, 4-(2-((5-cyclopropyl-3-(2,6-dichlorophenyl)isoxazol-4-yl)methoxy)-6-azaspiro[3.4]octan-6-yl)-3-fluorobenzoic Acid] gave an EC50 of 100 to 1000 nM. `O=C(O)c1ccc2nc(N3CCC4(CC(OCc5c(-c6c(F)cccc6F)noc5C5CC5)C4)C3)oc2c1` (centres unmarked) [Example 39, 2-(2-((5-cyclopropyl-3-(2,6-difluorophenyl)isoxazol-4-yl)methoxy)-6-azaspiro[3.4]octan-6-yl) benzo[d]oxazole-6-carboxylic Acid]: the concentration for a half-maximal effect (EC50) is 100 to 1000 nM.

`O=C(O)c1ccc2nc(N3CCc4ccc(OCc5c(-c6c(Cl)cccc6Cl)noc5C5CC5)cc4C3)sc2c1` [Example 24, 2-(7-((5-cyclopropyl-3-(2,6-dichlorophenyl)isoxazol-4-yl)methoxy)-3,4-dihydroisoquinolin-2(1H)-yl) benzo[d]thiazole-6-carboxylic Acid] registered an EC50 of 100 to 1000 nM.

As to `O=C(O)c1ccc2nc(N3CC4(CC(OCc5c(-c6c(Cl)cccc6Cl)noc5C5CC5)C4)C3)sc2c1` [Example 4, 2-(6((5-cyclopropyl-3-(2,6-dichlorophenyl)isoxazol-4-yl)methoxy)2-azaspiro[3.3]heptan-2-yl)benzo[d]thiazole-6-carboxylic Acid], the EC50 is below 100 nM.

`O=C(O)c1ccc2nc(N3CC4(CC(OCc5c(-c6c(Cl)cccc6Cl)noc5C5CC5)C4)C[C@H]3CF)sc2c1` (stereo partly drawn) [Example 16, (S)-2-(2-((5-5-cyclopropyl-3-(2,6-dichlorophenyl)isoxazol-4-yl)methoxy)-7-(fluromethyl)-6-azaspiro[3.4]octan-6-yl) benzo[d]thiazole-6-carboxylic Acid] registered an EC50 of 100 to 1000 nM. Take `Cn1c(C(=O)O)cc2cc(N3CCC4(CC(OCc5c(-c6c(Cl)cccc6Cl)noc5C5CC5)C4)C3)ccc21` (centres unmarked) [Example 32, 5-(2-((5-cyclopropyl-3-(2,6-dichlorophenyl)isoxazol-4-yl)methoxy)-6-azaspiro[3.4]octan-6-yl)-1-methyl-1H-indole-2-carboxylic Acid]: the EC50 was in the range of 100 to 1000 nM.

`O=C(O)c1cnc(N2CCC3(CC(OCc4c(-c5c(Cl)cccc5Cl)noc4C4CC4)C3)C2)cn1` (centres unmarked) [Example 35, 5-(2-((5-cyclopropyl-3-(2,6-dichlorophenyl)isoxazol-4-yl)methoxy)-6-azaspiro[3.4]octan-6-yl)pyrazine-2-carboxylic Acid] registered a half-maximal effective concentration (EC50) below 100 nM.

In the case of `O=C(O)c1ccc2nc(N3CC4CCC(C3)C4OCc3c(-c4c(Cl)cccc4Cl)noc3C3CC3)sc2c1` (centres unmarked) [Example 6, 2-(8-((5-cyclopropyl-3-(2,6-dichlorophenyl)isoxazol-4-yl)methoxy)-3-azabicyclo[3.2.1]octan-3-yl)benzo[d]thiazole-6-carboxylic Acid], the EC50 fell in the range of 100 to 1000 nM.

On to `O=C(O)c1cccc(C(=O)N2CC3(CC(OCc4c(-c5c(Cl)cccc5Cl)noc4C4CC4)C3)C2)c1` [Example 3, 3-(6((5-cyclopropyl-3(2,6-dichlorophenyl)isoxazol-4-yl)methoxy)-2-azaspiro[3.3]heptan-2-carbonyl)benzoic Acid], for which the EC50 is above 1000 nM. Then `O=C(O)c1ccc2nc(N3CCc4cc(OCc5c(-c6c(Cl)cccc6Cl)noc5C5CC5)ccc4C3)sc2c1` [Example 23, 2-(6-((5-cyclopropyl-3-(2,6-dichlorophenyl)isoxazol-4-yl)methoxy)-3,4-dihydroisoquinolin-2 (1H)-yl) benzo[d]thiazole-6-carboxylic Acid], with below 100 nM. The compound `O=C(O)c1cc(F)c2nc(N3CC4(CC(OCc5c(-c6c(Cl)cccc6Cl)noc5C5CC5)C4)C[C@H]3CF)sc2c1` (stereo partly drawn) [Example 19, (S)-2-(2-((5-cyclopropyl-3-(2,6-dichlorophenyl)isoxazol-4-yl)methoxy)-7-(fluromethyl)-6-azaspiro[3.4]octan-6-yl)-4-flurobenzo[d]thiazole-6-carboxylic Acid] gave a 50% effective concentration (EC50) of 100 to 1000 nM. Then `O=C(O)c1ccc2nc(N3CCC4(CC(OCc5c(-c6c(Cl)cccc6Cl)noc5C5CC5)C4)C3)oc2c1` (centres unmarked) [Example 14, 2-(2-((5-cyclopropyl-3-(2,6-dichlorophenyl)isoxazol-4-yl)methoxy)-6-azaspiro[3.4]octan-6-yl) benzo[d]oxazole-6-carboxylic Acid], with below 100 nM; and `O=C(O)c1ccc(N2CCC3(CC(OCc4c(-c5c(Cl)cccc5Cl)noc4C4CC4)C3)C2)nc1` (centres unmarked) [Example 44, 6-(2-((5-cyclopropyl-3-(2,6-dichlorophenyl)isoxazol-4-yl)methoxy)-6-azaspiro[3.4]octan-6-yl) pyridine-3-carboxylic Acid], with below 100 nM. Regarding `C[C@@H]1CC2(CC(OCc3c(-c4c(Cl)cccc4Cl)noc3C3CC3)C2)CN1c1nc2ccc(C(=O)O)cc2s1` (stereo partly drawn) [Example 15, (R)-2-(2-((5-cyclopropyl-3-(2,6-dichlorophenyl)isoxazol-4-yl)methoxy)-7-methyl-6-azaspiro[3.4]octan-6-yl) benzo[d]thiazole-6-carboxylic Acid], the EC50 was 100 to 1000 nM.

The values are drawn from US20190002452A1 (GUANGZHOU HENOVCOM BIOSCIENCE CO., LTD, priority 2016, published 2019).
